Source: patent US12643892B2, “Pyridazinone compounds for the treatment of neuromuscular diseases” (Edgewise Therapeutics, Inc., priority 2020, dated 2026)

Molecular target: Skeletal Myofibril ATPase (Rabbit Psoas myofibrils)
Experiment: Skeletal Myofibril ATPase Assay
Assay type: biochemical
Details: PK/LDH-coupled NADH absorbance at 340 nm
Method: Overview: Myosin ATPase activity was assessed by using a coupled reaction system, in which ADP generated by the myosin ATPase function was coupled to the disappearance of NADH through the pyruvate kinase/lactate dehydrogenase (PK-LDH) system. Myosin ATPase activity produces ADP, which was used as a substrate for PK to produce pyruvate and regenerate ATP. The pyruvate was then used as a substrate by LDH to oxidize NADH to NAD+. The rate of the reaction was monitored through the time-dependent disappearance of NADH using absorbance at 340 nm. Inhibition of ATPase activity by the assayed compounds was indicated by a reduced rate of NADH loss, relative to vehicle-treated controls, over the experimental time window. To assess the selectivity of the assayed compounds for skeletal myofibrils, the compounds were counter-screened in cardiac myofibrils.
Materials: The following stock solutions and reagents were used in the Skeletal Myofibril ATPase Assay:
Stock Solutions of pCa buffer. Combine PIPES, CaCl2, and EGTA solutions with 70 mL of water. Adjust pH to 7.0 and bring final volume to 100 mL.
Buffer A & Buffer B. Buffers were stored on ice until use.
Skeletal Myofibril ATPase Assay Procedure: BSA, ATP, NADH, PEP, and DTT solutions were thawed at room temperature, then transferred to ice. Pellet-frozen myofibrils (approximately twice the required volume) were transferred into a sufficiently large tube and capped. Myofibrils were thawed by rolling in a water bath for approximately 15 min at room temperature and cooled on ice. Buffers A and B were prepared by adjusting volumes as necessary for required number of wells and stored on ice. 0.5 μL of the compounds to be assayed were added into wells of a 384-well plate. Buffers A and B were mixed by inversion immediately prior to use, then 25 μL of each was dispensed using a Multidrop dispenser (Buffer A first, then Buffer B). The absorbance within the wells was measured at 340 nm, using a kinetic protocol in which the wells are read every 1.5-2 min for 1 h. The reaction rate was qualitatively assessed by subtracting the minimum absorbance value from the maximum value for each well, using either the SoftMax Pro plate reader software or a spreadsheet program such as Excel. Using GraphPad Prism 8.0, the data was normalized, with 100% activity defined as the absorbance change in the 1% DMSO vehicle wells and 0% assigned to no change in absorbance over the course of the experiment. The normalized data were fit to a variable-slope four-parameter logistic model, constraining the bottom to be 0 or greater. Compounds of Table 1 to 3 were tested and results of the assay appear in Table 4 herein. A=IC50 is less than or equal to 10 μM; B=IC50 is greater than 10 μM and less than 100 μM; C=IC50 is greater than 100 μM.

IC50 [µM]	SMILES
≤ 10	O=C(Cn1nc(-c2nnc(-c3cncc(Cl)c3)s2)ccc1=O)NC1CCC1 [Compound 20, 2-(3-(5-(5-chloropyridin-3-yl)-1,3,4-thiadiazol-2-yl)-6-oxopyridazin-1(6H)-yl)-N-cyclobutylacetamide]
≤ 10	COc1ccc(Cn2cc(-c3nc(-c4cccc(C)c4)no3)ccc2=O)cn1 [Compound 88, 1-((6-methoxypyridin-3-yl)methyl)-5-(3-(m-tolyl)-1,2,4-oxadiazol-5-yl)pyridin-2(1H)-one]
10 to 100	COc1ccc(NC(=O)Cn2nc(-c3cccs3)ccc2=O)cc1 [Compound 45, N-(4-methoxyphenyl)-2-(6-oxo-3-(thiophen-2-yl)pyridazin-1(6H)-yl)acetamide]
≤ 10	CCNC(=O)Cn1nc(-c2nnc(-c3cncc(C(F)(F)F)c3)s2)ccc1=O [Compound 19, N-ethyl-2-(6-oxo-3-(5-(5-(trifluoromethyl)pyridin-3-yl)-1,3,4-thiadiazol-2-yl)pyridazin-1(6H)-yl)acetamide]
> 120	Cc1cccc(-c2noc(-c3ccc(=O)n(Cc4cccnc4C)c3)n2)c1 [Compound 118, 1-((2-methylpyridin-3-yl)methyl)-5-(3-(m-tolyl)-1,2,4-oxadiazol-5-yl)pyridin-2(1H)-one]
10 to 100	Cc1noc(-c2ccc(=O)n(Cc3ccccc3F)n2)n1 [Compound 70, 2-(2-fluorobenzyl)-6-(3-methyl-1,2,4-oxadiazol-5-yl)pyridazin-3(2H)-one]
≤ 10	Cc1cccc(-c2noc(-c3ccc(=O)n(Cc4ccc(Cl)nc4)c3)n2)c1 [Compound 87, 1-((6-chloropyridin-3-yl)methyl)-5-(3-(m-tolyl)-1,2,4-oxadiazol-5-yl)pyridin-2(1H)-one]
≤ 10	Cn1ccc2c(NC(=O)Cn3nc(-c4cccs4)ccc3=O)cccc21 [Compound 83, N-(1-methyl-1H-indol-4-yl)-2-(6-oxo-3-(thiophen-2-yl)pyridazin-1(6H)-yl)acetamide]
> 120	O=c1ccc(-c2nc(-c3ccncc3)no2)cn1Cc1ccc(Cl)cc1 [Compound 119, 1-(4-chlorobenzyl)-5-(3-(pyridin-4-yl)-1,2,4-oxadiazol-5-yl)pyridin-2(1H)-one]
> 100	CCNC(=O)Cn1nc(-c2nc(-c3cccc(Cl)c3)cs2)ccc1=O [Compound 81, 2-(3-(4-(3-chlorophenyl)thiazol-2-yl)-6-oxopyridazin-1(6H)-yl)-N-ethylacetamide]
10 to 100	O=c1ccc(-c2cccs2)nn1Cc1cccc(F)c1 [Compound 57, 2-(3-fluorobenzyl)-6-(thiophen-2-yl)pyridazin-3(2H)-one]
> 120	O=c1ccc(-c2nc(-c3ccccc3F)no2)cn1Cc1cccnc1 [Compound 111, 5-(3-(2-fluorophenyl)-1,2,4-oxadiazol-5-yl)-1-(pyridin-3-ylmethyl)pyridin-2(1H)-one]
10 to 100	COCCn1nc(-c2nc(-c3ccc(F)c(C)c3)no2)ccc1=O [Compound 74, 6-(3-(4-fluoro-3-methylphenyl)-l,2,4-oxadiazol-5-yl)-2-(2-methoxyethyl)pyridazin-3(2H)-one]
> 120	O=c1ccc(-c2nc(C3CC3)no2)cn1Cc1c(F)cccc1Cl [Compound 123, 1-(2-chloro-6-fluorobenzyl)-5-(3-cyclopropyl-1,2,4-oxadiazol-5-yl)pyridin-2(1H)-one]
≤ 10	O=c1ccc(-c2nc(-c3cccc(Cl)c3)no2)nn1Cc1cncc(F)c1 [Compound 64, 6-(3-(3-chlorophenyl)-1,2,4-oxadiazol-5-yl)-2-((5-fluoropyridin-3-yl)methyl)pyridazin-3(2H)-one]
10 to 100	O=c1ccc(-c2nc(-c3ccccc3)no2)cn1Cc1cccnc1 [Compound 107, 5-(3-phenyl-1,2,4-oxadiazol-5-yl)-1-(pyridin-3-ylmethyl)pyridin-2(1H)-one]
> 100	O=C(Cn1nc(-c2ccco2)ccc1=O)NCc1ccccc1F [Compound 53, N-(2-fluorobenzyl)-2-(3-(furan-2-yl)-6-oxopyridazin-1(6H)-yl)acetamide]
≤ 10	Cc1cc(Cn2nc(-c3nc(-c4cccc(Cl)c4)no3)ccc2=O)on1 [Compound 63, 6-(3-(3-chlorophenyl)-1,2,4-oxadiazol-5-yl)-2-((3-methylisoxazol-5-yl)methyl)pyridazin-3(2H)-one]

IC50 [µM]	SMILES
> 120	Cc1cccc(-c2noc(-c3ccc(=O)n(Cc4cccnc4C#N)c3)n2)c1 [Compound 112, 3-((2-oxo-5-(3-(m-tolyl)-1,2,4-oxadiazol-5-yl)pyridin-1(2H)-yl)methyl)picolinonitrile]
10 to 100	Cc1ccc(-c2ccc(=O)n(CC(=O)NCc3ccccc3)n2)s1 [Compound 35, N-benzyl-2-(3-(5-methylthiophen-2-yl)-6-oxopyridazin-1(6H)-yl)acetamide]
≤ 10	Cc1cccc(-c2noc(-c3ccc(=O)n(Cc4nnc(C)o4)c3)n2)c1 [Compound 100, 1-((5-methyl-1,3,4-oxadiazol-2-yl)methyl)-5-(3-(m-tolyl)-1,2,4-oxadiazol-5-yl)pyridin-2(1H)-one]
≤ 10	O=c1ccc(-c2nc(-c3cccc(F)c3)no2)cn1Cc1cncnc1 [Compound 106, 5-(3-(3-fluorophenyl)-1,2,4-oxadiazol-5-yl)-1-(pyrimidin-5-ylmethyl)pyridin-2(1H)-one]
> 120	CC(c1cncc(F)c1)n1cc(-c2nc(-c3cccc(Cl)c3)no2)ccc1=O (centres unmarked) [Compound 117, 5-(3-(3-chlorophenyl)-1,2,4-oxadiazol-5-yl)-1-(1-(5-fluoropyridin-3-yl)ethyl)pyridin-2(1H)-one]
10 to 100	O=C(Cn1nc(-c2cccs2)ccc1=O)Nc1ccccc1Cl [Compound 37, N-(2-chlorophenyl)-2-(6-oxo-3-(thiophen-2-yl)pyridazin-1(6H)-yl)acetamide]
≤ 10	CCNC(=O)Cn1nc(-c2noc(-c3cccc(Cl)c3)n2)ccc1=O [Compound 31, 2-(3-(5-(3-chlorophenyl)-1,2,4-oxadiazol-3-yl)-6-oxopyridazin-1(6H)-yl)-N-ethylacetamide]
10 to 100	Cc1ccc(-c2ccc(=O)n(CC(=O)NC3CCCC3)n2)s1 [Compound 39, N-cyclopentyl-2-(3-(5-methylthiophen-2-yl)-6-oxopyridazin-1(6H)-yl)acetamide]
10 to 100	O=c1ccc(-n2cncn2)nn1Cc1csc(Br)c1 [Compound 80, 2-((5-bromothiophen-3-yl)methyl)-6-(1H-1,2,4-triazol-1-yl)pyridazin-3(2H)-one]
≤ 10	Cc1cccc(-c2noc(-c3ccc(=O)n(Cc4cccnc4)c3)n2)c1 [Compound 94, 1-(pyridin-3-ylmethyl)-5-(3-(m-tolyl)-1,2,4-oxadiazol-5-yl)pyridin-2(1H)-one]
≤ 10	CCNC(=O)Cn1nc(-c2nnc(-c3cccc(Cl)c3)s2)ccc1=O [Compound 24, 2-(3-(5-(3-chlorophenyl)-1,3,4-thiadiazol-2-yl)-6-oxopyridazin-1(6H)-yl)-N-ethylacetamide]
> 120	O=c1ccc(-c2nc(-c3ccccc3Cl)no2)cn1Cc1noc(C2CC2)n1 [Compound 113, 5-(3-(2-chlorophenyl)-1,2,4-oxadiazol-5-yl)-1-((5-cyclopropyl-1,2,4-oxadiazol-3-yl)methyl)pyridin-2(lH)-one]
10 to 100	Cc1ccc(-c2ccc(=O)n(CC(=O)N(C)c3ccccc3)n2)s1 [Compound 38, N-methyl-2-(3-(5-methylthiophen-2-yl)-6-oxopyridazin-1(6H)-yl)-N -phenylacetamide]
> 120	O=c1ccc(-c2nc(-c3ccc(Cl)cc3)no2)cn1Cc1cccnc1 [Compound 125, 5-(3-(4-chlorophenyl)-1,2,4-oxadiazol-5-yl)-1-(pyridin-3-ylmethyl)pyridin-2(1H)-one]
> 100	O=c1ccc(-c2cccs2)nn1Cc1cccc(C(F)(F)F)c1 [Compound 59, 6-(thiophen-2-yl)-2-(3-(trifluoromethyl)benzyl)pyridazin-3(2H)-one]
≤ 10	O=c1ccc(-c2nc(-c3ccc(F)c(F)c3)no2)cn1Cc1cccnc1 [Compound 97, 5-(3-(3,4-difluorophenyl)-1,2,4-oxadiazol-5-yl)-1-(pyridin-3-ylmethyl)pyridin-2(1H)-one]
≤ 10	CCNC(=O)Cn1nc(-c2nc(-c3ccc(F)c(F)c3)no2)ccc1=O [Compound 8, 2-(3-(3-(3,4-difluorophenyl)-1,2,4-oxadiazol-5-yl)-6-oxopyridazin-1(6H)-yl)-N-ethylacetamide]
